Assay results published in US7951813B2, “Quinazolinone derivatives as ALDH-2 inhibitors” (Gilead Sciences, Inc., priority 2007, dated 2011).
Entries after “also recorded” stand apart in the source; their conditions may differ.

Assays:
[1] = molecular target: T1, hALDH2 (UniProt P05091); assay: ALDH-2 assay (inhibition of hALDH2); format: biochemical, human
T1 sequence (P05091 1-517): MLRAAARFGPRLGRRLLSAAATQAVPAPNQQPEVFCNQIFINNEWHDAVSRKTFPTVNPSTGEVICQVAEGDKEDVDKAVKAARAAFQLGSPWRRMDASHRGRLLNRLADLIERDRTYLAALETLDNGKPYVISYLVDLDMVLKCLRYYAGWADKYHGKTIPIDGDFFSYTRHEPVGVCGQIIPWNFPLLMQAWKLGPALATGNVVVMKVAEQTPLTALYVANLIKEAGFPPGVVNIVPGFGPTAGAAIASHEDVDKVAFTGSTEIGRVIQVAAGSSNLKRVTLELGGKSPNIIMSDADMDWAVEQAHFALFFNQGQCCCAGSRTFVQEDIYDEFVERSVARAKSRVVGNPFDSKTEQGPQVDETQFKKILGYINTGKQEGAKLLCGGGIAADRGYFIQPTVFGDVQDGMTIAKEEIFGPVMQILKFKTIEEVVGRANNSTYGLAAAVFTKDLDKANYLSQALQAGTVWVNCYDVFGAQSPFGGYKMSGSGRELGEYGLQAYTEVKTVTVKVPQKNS

[2] = molecular target: T2, hMAO-A (UniProt P21397); assay: MAO assay (inhibition of hMAO-A); format: biochemical, human; conditions: read-out: IC50 hMAO-A (No inhibition up to 10 μM)
T2 sequence (P21397 1-527): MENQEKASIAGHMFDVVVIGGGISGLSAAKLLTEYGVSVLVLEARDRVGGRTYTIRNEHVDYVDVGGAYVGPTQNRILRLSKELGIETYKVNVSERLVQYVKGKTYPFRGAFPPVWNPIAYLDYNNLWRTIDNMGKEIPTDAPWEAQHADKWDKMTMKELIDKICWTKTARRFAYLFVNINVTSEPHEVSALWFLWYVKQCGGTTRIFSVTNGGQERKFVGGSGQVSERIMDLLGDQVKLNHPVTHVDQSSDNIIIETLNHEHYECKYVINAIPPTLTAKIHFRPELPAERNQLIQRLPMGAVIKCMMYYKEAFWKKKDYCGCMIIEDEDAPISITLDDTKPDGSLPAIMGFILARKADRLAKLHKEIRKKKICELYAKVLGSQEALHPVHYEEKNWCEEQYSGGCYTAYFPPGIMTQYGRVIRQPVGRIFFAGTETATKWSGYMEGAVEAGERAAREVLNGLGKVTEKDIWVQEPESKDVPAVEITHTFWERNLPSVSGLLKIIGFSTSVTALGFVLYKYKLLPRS

[3] = molecular target: T3, hMAO-B (Homo sapiens, UniProt P27338); assay: MAO assay (inhibition of hMAO-B); format: biochemical; conditions: read-out: IC50 hMAO-B (No inhibition up to 10 μM)
T3 sequence (P27338 2-520 limits assumed): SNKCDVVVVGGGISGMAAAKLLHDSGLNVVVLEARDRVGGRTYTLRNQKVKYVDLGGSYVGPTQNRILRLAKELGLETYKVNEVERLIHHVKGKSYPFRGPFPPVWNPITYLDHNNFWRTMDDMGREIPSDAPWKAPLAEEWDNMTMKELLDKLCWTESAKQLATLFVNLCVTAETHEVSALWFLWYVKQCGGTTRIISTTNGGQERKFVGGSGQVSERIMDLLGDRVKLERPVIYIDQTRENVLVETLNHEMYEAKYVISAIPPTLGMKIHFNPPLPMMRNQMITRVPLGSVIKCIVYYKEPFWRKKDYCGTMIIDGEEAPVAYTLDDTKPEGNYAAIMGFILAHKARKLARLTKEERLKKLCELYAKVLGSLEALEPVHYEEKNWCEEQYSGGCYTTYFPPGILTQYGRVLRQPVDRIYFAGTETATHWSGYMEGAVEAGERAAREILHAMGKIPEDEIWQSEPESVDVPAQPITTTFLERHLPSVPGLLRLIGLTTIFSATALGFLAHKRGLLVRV

[4] = molecular target: T4, human mitochondrial aldehyde dehydrogenase (ALDH-2) (Homo sapiens, UniProt P05091); conditions: background statement, U.S. Pat. Nos. 5,624,910 and 6,121,010; cited from earlier work
T4 sequence (P05091 18-517): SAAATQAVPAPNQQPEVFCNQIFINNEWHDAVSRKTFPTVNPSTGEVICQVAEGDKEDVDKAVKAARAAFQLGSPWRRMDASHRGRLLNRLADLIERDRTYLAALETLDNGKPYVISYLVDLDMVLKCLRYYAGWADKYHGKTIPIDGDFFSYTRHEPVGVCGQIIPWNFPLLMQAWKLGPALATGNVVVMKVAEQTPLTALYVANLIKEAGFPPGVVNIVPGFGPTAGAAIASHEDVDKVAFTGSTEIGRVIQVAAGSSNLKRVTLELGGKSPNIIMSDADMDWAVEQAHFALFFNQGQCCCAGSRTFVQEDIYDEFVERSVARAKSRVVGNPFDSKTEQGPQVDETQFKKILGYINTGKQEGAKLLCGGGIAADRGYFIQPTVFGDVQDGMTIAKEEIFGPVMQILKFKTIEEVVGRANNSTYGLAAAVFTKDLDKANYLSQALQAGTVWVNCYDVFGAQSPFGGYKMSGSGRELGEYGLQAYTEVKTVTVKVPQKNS

[5] = test system: Syrian golden hamsters; conditions: background statement, Keung and Vallee; U.S. Pat. Nos. 5,624,910 and 6,121,010; cited from earlier work

hALDH2 % inhibition ([1]; at 1 μM) [% inhibition at 1 μM] | IC50 [2] [µM] | IC50 [3] [µM] | IC50 [1] [µM] | Compound | inhibition of human mitochondrial ALDH-2 [4] | suppression of ethanol intake [5]
25 | > 10 | > 10 |  | N#Cc1cccc(-c2nc(COc3ccc4c(=O)n(-c5ccc(O)cc5)cnc4c3)no2)c1 [3-(3-{[3-(4-hydroxyphenyl)-4-oxo-3-hydroquinazolin-7-yloxy]methyl}-1,2,4-oxadiazol-5-yl)benzenecarbonitrile] |  | 
 | > 10 | > 10 | 0.03 | O=c1c2ccc(OCc3noc(-c4cccc(C(F)(F)F)c4)n3)cc2ncn1-c1ccc(O)cc1 [3-(4-hydroxyphenyl)-7-({5-[3-(trifluoromethyl)phenyl](1,2,4-oxadiazol-3-yl)}methoxy)-3-hydroquinazolin-4-one] |  | 
 | > 10 | > 10 | 0.1 | COc1ccc(-c2nc(COc3ccc4c(=O)n(-c5ccc(O)cc5)cnc4c3)no2)cc1C(F)(F)F [3-(4-hydroxyphenyl)-7-({5-[4-methoxy-3-(trifluoromethyl)phenyl](1,2,4-oxadiazol-3-yl)}methoxy)-3-hydroquinazolin-4-one] |  | 
 | > 10 | > 10 | 0.107 | O=c1c2ccc(OCc3noc(-c4ccccc4)n3)cc2ncn1-c1ccc(O)cc1 [3-(4-hydroxyphenyl)-7-[(5-phenyl(1,2,4-oxadiazol-3-yl))methoxy]-3-hydroquinazolin-4-one] |  | 
 | > 10 | > 10 | 0.196 | N#Cc1cccc(COc2ccc3c(=O)n(-c4ccc(O)cc4)cnc3c2)c1 [3-{[3-(4-hydroxyphenyl)-4-oxo-3-hydroquinazolin-7-yloxy]methyl} benzenecarbonitrile] |  | 
 | > 10 | > 10 | 0.021 | NC(=O)c1cccc(COc2ccc3c(=O)n(-c4ccc(O)cc4)cnc3c2)c1 [3-{[3-(4-hydroxyphenyl)-4-oxo-3-hydroquinazolin-7-yloxy]methyl}benzamide] |  | 
 | > 10 | > 10 | 0.312 | O=c1c2ccc(OCc3noc(-c4cc(C(F)(F)F)ccc4C(F)(F)F)n3)cc2ncn1-c1ccc(O)cc1 [7-({5-[2,5-bis(trifluoromethyl)phenyl](1,2,4-oxadiazol-3-yl)}methoxy)-3-(4-hydroxyphenyl)-3-hydroquinazolin-4-one] |  | 
 | > 10 | > 10 | 0.09 | COc1ccccc1-c1nc(COc2ccc3c(=O)n(-c4ccc(O)cc4)cnc3c2)no1 [7-({5-[2-methoxyphenyl](1,2,4-oxadiazol-3-yl)}methoxy)-3-(4-hydroxyphenyl)-3-hydroquinazolin-4-one] |  | 
 | > 10 | > 10 | 0.07 | O=c1c2ccc(OCc3noc(-c4cc(C(F)(F)F)cc(C(F)(F)F)c4)n3)cc2ncn1-c1ccc(O)cc1 [7-({5-[3,5-bis(trifluoromethyl)phenyl](1,2,4-oxadiazol-3-yl)}methoxy)-3-(4-hydroxyphenyl)-3-hydroquinazolin-4-one] |  | 
 | > 10 | > 10 | 0.07 | O=c1c2ccc(OCc3noc(-c4cc(F)cc(C(F)(F)F)c4)n3)cc2ncn1-c1ccc(O)cc1 [7-({5-[5-fluoro-3-(trifluoromethyl)phenyl](1,2,4-oxadiazol-3-yl)}methoxy)-3-(4-hydroxyphenyl)-3-hydroquinazolin-4-one] |  | 
 |  |  |  | O=c1c(-c2ccc(O)cc2)coc2cc(O[C@@H]3O[C@H](CO)[C@@H](O)[C@H](O)[C@H]3O)ccc12 [Daidzin, daidzin] | potent and selective inhibitors | 
 | > 10 | > 10 | 0.196 | C=CCOC(=O)c1cccc(COc2ccc3c(=O)n(-c4ccc(O)cc4)cnc3c2)c1 [Example 2A, prop-2-enyl 3-{[3-(4-hydroxyphenyl)-4-oxo-3-hydroquinazolin-7-yloxy]methyl} benzoate] |  | 
 | > 10 | > 10 | 0.136 | O=C(O)c1cccc(COc2ccc3c(=O)n(-c4ccc(O)cc4)cnc3c2)c1 [Example 3A, 3-{[3-(4-hydroxyphenyl)-4-oxo-3-hydroquinazolin-7-yloxy]methyl}benzoic acid] |  | 
 |  |  |  | O=c1c(-c2ccc(O)cc2)coc2cc(O)ccc12 [daidzein] |  | effective in suppressing ethanol intake; also recorded: effective in suppressing ethanol uptake
 | > 10 | > 10 | 0.095 | CC(C)OC(=O)c1cccc(COc2ccc3c(=O)n(-c4ccc(O)cc4)cnc3c2)c1 [methylethyl 3-{[3-(4-hydroxyphenyl)-4-oxo-3-hydroquinazolin-7-yloxy]methyl} benzoate] |  | 
